From US6432953B1, “Polymorphic form of a tachykinin receptor antagonist” (Merck & Co., Inc., priority 1997, dated 2002)
Converted amounts (≈) assume the structure as drawn.

What was measured:
[1] = Solubility in methanol/water; format: physicochemical; conditions: for solubility: 2/1 (v/v) methanol/water, 0 °C, organic solvent or mixture, thermodynamic from solid
Method: The solubility of Form I in 2/1 (v/v) methanol/water at 0° C. was determined to be 0.9±0.1 mg/ml. The solubility of Form II in 2/1 (v/v) methanol/water at 0C was determined to be 1.3±0.2 mg/ml.

[2] = system: cisplatin-induced emesis; assay: Ferret model of cisplatin-induced emesis; format: in vivo; conditions: model of Tattersall et al.
[3] = Hygroscopicity; format: physicochemical
[4] = Thermal stability; format: physicochemical
[5] = Vapor pressure by Knudsen effusion techniques; format: physicochemical; conditions: at elevated temperatures, Form I compared with Form II
Text: The vapor pressures of Form I and Form II at elevated temperatures were similar when examined with Knudsen effusion techniques.

| SMILES | solubility ([1]; 2/1 (v/v) methanol/water at 0C) | retching and vomiting induced by cisplatin [2] | hygroscopicity [3] | thermal stability ([4]; as a neat solid) | thermal stability ([4]; in hydroalcoholic solution) | vapor pressures [5] | ratio of the solubilities [1] | solubility ([1]; 2/1 (v/v) methanol/water at 0° C.) | more stable than Form II by ([1]; thermodynamic stability difference between polymorphs, from solubility ratio) |
| --- | --- | --- | --- | --- | --- | --- | --- | --- | --- |
| CC(OC1OCCN(Cc2n[nH]c(=O)[nH]2)[C@H]1c1ccc(F)cc1)c1cc(C(F)(F)F)cc(C(F)(F)F)c1 (stereo partly drawn) [Form II] | 1300 ± 200 µg/mL (≈ 2430 µM) | – | – | – | – | – | – | – | – |
| CC(OC1OCCN(Cc2n[nH]c(=O)[nH]2)[C@H]1c1ccc(F)cc1)c1cc(C(F)(F)F)cc(C(F)(F)F)c1 (stereo partly drawn) [Form I] | – | attenuate the retching and vomiting induced by cisplatin | non-hygroscopic | high degree of thermal stability | high degree of thermal stability | similar | 1.4 | 900 ± 100 µg/mL (≈ 1680 µM) | 0.2 kcal/mol |
